Measurements taken from patent US20110207144A1, “IN VITRO SCREENING ASSAYS” (priority 2009, published 2011).

Tested on: Human Umbilical Vein Endothelial Cell (HUVEC)
Assay: HUVEC vasculogenesis/angiogenesis assay (HUVEC co-cultured with human fibroblasts, CD31 labeling of vessels)
Assay type: cell-based
Conditions: for all three vessel parameters relative to the control wells: 11 days, p<0.05, one way ANOVA
Description: Studies were conducted to determine the effects of anti-LOXL2 antibody AB0023 in an in vitro vasculogenesis/angiogenesis assay. For this purpose, a dose range of AB0023 was tested alongside VEGF (an angiogenesis promoter), suramin (an angiogenesis inhibitor) and media alone in a HUVECs based in vitro system. The assay was run for 11 days with media changes on days 1, 4, 7 and 9. After 11 days, wells were fixed with 70% ethanol and vessels were tested for expression of CD31, an endothelial marker. Images of 4 random fields per well were taken and the number of branch points, number of vessels and total vessel length was calculated for each well using a specialist software analysis package.
At this point (day 1), fresh endothelial cell growth medium containing the test item and controls, as detailed in Table 1, was added to wells at 0.5 ml per well. Test item and controls were added in duplicate or triplicate according to Table 1, and media-only added in triplicate acted as baseline endothelial growth control. The plate was then cultured at 37° C. and 5% CO2. On days 4, 7 and 9 the medium was removed from all wells and carefully replaced with 0.5 ml of fresh medium containing the test item and controls as detailed in Table 1. On day 11, the plates were fixed and labeled for CD31 as detailed below. On each day of the experiment the plate was visualized using an inverted microscope to ensure normal growth cells and no contamination.
After 11 days, plates were fixed by carefully aspirating medium from wells, washed with 1 ml PBS per well, and then 1 ml ice cold 70% ethanol was added for 30 minutes at room temperature. Fixative was then carefully removed and the wells were incubated with 0.5 ml mouse anti-human CD31 antibody diluted 1:400 in PBS containing 1% BSA and incubated for 60 minutes at 37° C. Wells were then washed three times with 1 ml PBS followed by incubation with 0.5 ml goat anti-mouse IgG alkaline phosphatase conjugated secondary antibody diluted 1:500 in PBS containing 1% BSA for 60 minutes at 37° C. Wells were washed a further three times with 1 ml PBS prior to incubation with 0.5 ml freshly prepared and filtered BCIP/NBT substrate for 10 minutes at 37° C. Wells were then carefully washed three times with 1 ml distilled water and left to air dry overnight.
Digital images of each well were obtained using a Nikon Coolpix camera on a Leica inverted microscope at 10× magnification. Four random fields per well were imaged, producing 96 images in total. Images were then converted to BMP files and imported into an image analysis package to measure the number of vessel branches, number of vessels and total vessel length. This is performed by thresholding the image so that only CD31-stained vessels were detected, which the software then skeletonized to produce single pixel width vessels. From these, individual vessel length, total vessel length and number of vessel branch points were determined. The data were then exported to Excel to calculate mean and standard deviation for each data set. Basic statistics were carried out using a one-way ANOVA.

Row | Compound | number of branches relative to the control group (20 μM suramin, p<0.05 one way ANOVA) | vessel formation relative to control wells (suramin 20 μM (FIG. 2)) | all three vessel parameters relative to the control wells (suramin 20 μM) | branching relative to the control group | vessel formation relative to control wells (VEGF 2 ng/ml (FIG. 4)) | all three vessel parameters relative to the control wells (VEGF 2 ng/ml)
1 | Cc1ccc(C(=O)Nc2ccc(S(=O)(=O)O)c3cc(S(=O)(=O)O)cc(S(=O)(=O)O)c23)cc1NC(=O)c1cccc(NC(=O)Nc2cccc(C(=O)Nc3cc(C(=O)Nc4ccc(S(=O)(=O)O)c5cc(S(=O)(=O)O)cc(S(=O)(=O)O)c45)ccc3C)c2)c1 [Suramin, suramin] | significant reduction | decrease in vessel formation | significant decrease |  |  | 
2 | VEGF |  |  |  | significant increase | increase in vessel formation | increase
